Test results as given in US20050282159A1, “Rpob gene of streptomyces, primer specific to streptomyces, and identification method of streptomyces having rifampin resistance or sensitivity by using the same” (priority 2001, published 2005).

Legend:
[1] = system: S. fimbriatus KCCM 11888; conditions: TCG (TCC) genotype
Procedure: (§1) The primer sets of SEQ ID NOs: 1 and 2 were used to amplify rpoB genes of 60 strains, and nucleotides of the […] products were analyzed with an automatic sequencer. SRPOF1 as a forward primer and SRPOR1 as a backward primer were used.

[2] = system: S. rubiginosus KCTC 9042; conditions: AAC genotype
Procedure: as §1

[3] = system: S. cremeus KCCM 40509; conditions: TCG (TCC) genotype
Procedure: as §1

[4] = system: S. amakusaensis KCTC 9753; conditions: TCG (TCC) genotype
Procedure: as §1

[5] = system: S. indigoferus KCCM 40495; conditions: TCG (TCC) genotype
Procedure: as §1

[6] = system: S. chromogenes KCCM 40727; conditions: TCG (TCC) genotype
Procedure: as §1

[7] = system: S. griseolosporeus KCTC 9791; conditions: TCG (TCC) genotype
Procedure: as §1

[8] = system: S. anulatus KCCM 40190; conditions: AAC genotype
Procedure: as §1

[9] = system: S. hachijoense KCCM 32306; conditions: TCG (TCC) genotype
Procedure: as §1

[10] = system: S. tendae KCCM 40105; conditions: AAC genotype
Procedure: as §1

[11] = system: S. fumanus KCCM 40522; conditions: TCG (TCC) genotype
Procedure: as §1

[12] = system: S. umbrinus KCCM 40316; conditions: AAC genotype
Procedure: as §1

[13] = system: S. coerulescens KCCM 40508; conditions: TCG (TCC) genotype
Procedure: as §1

[14] = system: S. eurythermus KCTC 9731; conditions: TCG (TCC) genotype
Procedure: as §1

[15] = system: S. erythraeus KCCM 40477; conditions: TCG (TCC) genotype
Procedure: as §1

[16] = system: S. citreofluorescens KCTC 9710; conditions: TCG (TCC) genotype
Procedure: as §1

[17] = system: S. albospinus KCTC 9762; conditions: TCG (TCC) genotype
Procedure: as §1

[18] = system: S. azureus KCCM 40485; conditions: TCG (TCC) genotype
Procedure: as §1

[19] = system: S. coelescens KCCM 40742; conditions: AAC genotype
Procedure: as §1

[20] = system: S. kurssanovi KCCM 40527; conditions: TCG (TCC) genotype
Procedure: as §1

[21] = system: S. coeruleofuscus KCCM 40506; conditions: TCG (TCC) genotype
Procedure: as §1

[22] = system: S. carpinensis KCTC 9128; conditions: TCG (TCC) genotype
Procedure: as §1

[23] = system: S. althioticus KCTC 9752; conditions: AAC genotype
Procedure: as §1

[24] = system: S. griseoruber KCCM 40658; conditions: TCG (TCC) genotype
Procedure: as §1

[25] = system: S. disatochromogenes KCCM 40449; conditions: TCG (TCC) genotype
Procedure: as §1

[26] = system: S. albaduncus KCTC 1741; conditions: AAC genotype
Procedure: as §1

[27] = system: S. kifunensis KCTC 9734; conditions: TCG (TCC) genotype
Procedure: as §1

[28] = system: S. murinus KCTC 9492; conditions: AAC genotype
Procedure: as §1

[29] = system: S. cellulose KCTC 9703; conditions: AAC genotype
Procedure: as §1

[30] = system: S. baldacii KCCM 41326; conditions: TCG (TCC) genotype
Procedure: as §1

[31] = system: S. aureufaciens KCCM 40127; conditions: TCG (TCC) genotype
Procedure: as §1

[32] = system: S. gougeroti KCCM 40681; conditions: TCG (TCC) genotype
Procedure: as §1

[33] = system: S. griseoflavus KCCM 12624; conditions: AAC genotype
Procedure: as §1

[34] = system: S. aburaviensis KCTC 9663; conditions: TCG (TCC) genotype
Procedure: as §1

[35] = system: S. yokosukanens KCCM 40633; conditions: AAC genotype
Procedure: as §1

[36] = system: 47 strains of Streptomyces references; test: rifampin-sensitive test on Bennet solid media (summary); format: cell-based; conditions: 25 ug/ml rifampin, 72 hr
Procedure: A total of 47 strains of Streptomyces references including 24 reference strains having AAC encoding Asp and 23 reference strains having TCG or TCC encoding Ser at the sequenced positions were used, and 306-bI rpoB nucleotide sequences of the […] strains are shown in SEQUENCE LISTING.
The 47 strains were respectively cultured at 28° C. for 72 hr in Bennet liquid media. The culture solution was then inoculated on Bennet solid media (yeast extract 1 g/L, Beef extract 1 g/L, Tryptone 2 g/L, Glycerol 10 g/L, Agar 15 g/L) containing 25 ug/ml rifampin, and after incubation for 72 hr, rifampin-resistance was tested.

[37] = system: S. flavotricini KCCM 40520; conditions: TCG (TCC) genotype
Procedure: The primer sets of SEQ ID NOs: 1 and 2 were used to amplify rpoB genes of 60 strains, and nucleotides of the 352-bp products were analyzed with an automatic sequencer. SRPOF1 as a forward primer and SRPOR1 as a backward primer were used.

[38] = system: S. anabdii KCTC 9687; test: rifampin genotype by rpoB nucleotide sequence analysis; conditions: TCG (TCC) genotype
Procedure: as §1

[39] = system: S. coralus KCCM 40642; test: as above; conditions: TCG (TCC) genotype
Procedure: as §1

[40] = system: S. caseius KCCM 40740; test: as above; conditions: TCG (TCC) genotype
Procedure: as §1

[41] = system: 60 strains; test: rifampin genotype by rpoB nucleotide sequence analysis (summary); parameters: species or system Streptomyces; conditions: the other 41 strains with TCG or TCC at the 352nd position
Procedure: as §1

SMILES: CO[C@H]1/C=C/O[C@@]2(C)Oc3c(C)c(O)c4c(O)c(c(/C=N/N5CCN(C)CC5)c(O)c4c3C2=O)NC(=O)/C(C)=C\C=C\[C@H](C)[C@H](O)[C@@H](C)[C@@H](O)[C@@H](C)[C@H](OC(C)=O)[C@@H]1C [rifampin]
- genotype (rifampin-resistant or -sensitive strain) [1]: −
- genotype (rifampin-resistant or -sensitive strain) [2]: +
- genotype (rifampin-resistant or -sensitive strain) [3]: −
- genotype (rifampin-resistant or -sensitive strain) [4]: −
- genotype (rifampin-resistant or -sensitive strain) [5]: −
- genotype (rifampin-resistant or -sensitive strain) [6]: −
- genotype (rifampin-resistant or -sensitive strain) [7]: −
- genotype (rifampin-resistant or -sensitive strain) [8]: +
- genotype (rifampin-resistant or -sensitive strain) [9]: −
- genotype (rifampin-resistant or -sensitive strain) [10]: +
- genotype (rifampin-resistant or -sensitive strain) [11]: −
- genotype (rifampin-resistant or -sensitive strain) [12]: +
- genotype (rifampin-resistant or -sensitive strain) [13]: −
- genotype (rifampin-resistant or -sensitive strain) [14]: −
- genotype (rifampin-resistant or -sensitive strain) [15]: −
- genotype (rifampin-resistant or -sensitive strain) [16]: −
- genotype (rifampin-resistant or -sensitive strain) [17]: −
- genotype (rifampin-resistant or -sensitive strain) [18]: −
- genotype (rifampin-resistant or -sensitive strain) [19]: +
- genotype (rifampin-resistant or -sensitive strain) [20]: −
- genotype (rifampin-resistant or -sensitive strain) [21]: −
- genotype (rifampin-resistant or -sensitive strain) [22]: −
- genotype (rifampin-resistant or -sensitive strain) [23]: +
- genotype (rifampin-resistant or -sensitive strain) [24]: −
- genotype (rifampin-resistant or -sensitive strain) [25]: −
- genotype (rifampin-resistant or -sensitive strain) [26]: +
- genotype (rifampin-resistant or -sensitive strain) [27]: −
- genotype (rifampin-resistant or -sensitive strain) [28]: +
- genotype (rifampin-resistant or -sensitive strain) [29]: +
- genotype (rifampin-resistant or -sensitive strain) [30]: −
- genotype (rifampin-resistant or -sensitive strain) [31]: −
- genotype (rifampin-resistant or -sensitive strain) [32]: −
- genotype (rifampin-resistant or -sensitive strain) [33]: +
- genotype (rifampin-resistant or -sensitive strain) [34]: −
- genotype (rifampin-resistant or -sensitive strain) [35]: +
- rifampin resistance or sensitivity of the strains ([36]; all 24 strains having AAC genotypes): rifampin-resistant strains
- rifampin resistance or sensitivity of the strains ([36]; the 23 strains having TCG or TCC genotypes): rifampin-sensitive strains
- genotype (rifampin-resistant or -sensitive strain) [37]: −
- genotype (rifampin-resistant or -sensitive strain) [38]: −
- genotype (rifampin-resistant or -sensitive strain) [39]: −
- genotype (rifampin-resistant or -sensitive strain) [40]: −
- rifampin genotype of the strains [41]: rifampin-sensitive genotypes
